{
  "source": "patent US20030158250A1",
  "about": "“Agents correcting gene expression regulatory error” (priority 2000, published 2003)",
  "key": {"TNFα": {"system": "TNFα", "experiment": "LPS-stimulated TNFα production in monocytes (ELISA)", "type": "cell-based", "conditions": "human monocytes, final concentration 50 μM, 100 μM or 200 μM, 5 hours, then LPS 4 hours", "description": "PBMCs were isolated in the same manner as in item (1) of Example 4. PBMCs were suspended in RPMI 1640 medium containing 5% human serum of blood type-AB, 0.1 mM nonessential amino acid, 1 mM sodium pyruvate, 2 mM L-glutamine (hereinabove manufactured by Bio Whittaker), 10 mM HEPES (manufactured by nakalai tesque), and 1% streptomycin-penicillin (manufactured by Gibco BRL) (hereinafter simply referred to as “5HRPMI medium”) so as to have a concentration of 2×10^6 cells/ml. Thereafter, the suspension was spread on a 24-well cell culture plate (manufactured by Falcon) in a volume of 1 ml/well, and the cells were incubated in a wet-type incubator at 37° C. and 5% CO2 for 1.5 hours. After 1.5 hours, the non-adherent cells were removed by suction, and each well was washed with RPMI 1640 medium, and 1 ml of the 5HRPMI medium was added to the wells, to give monocytes.\nTo the monocytes obtained above was added in each well 10 μl of a 1 mM, 2 mM or 4 mM aqueous DGE solution (each having a final concentration of 10 μM, 20 μM or 40 μM), or a 5 mM, 10 mM or 20 mM aqueous agarobiose solution (each having a final concentration of 50 μM, 100 μM or 200 μM), or 10 μl of water as a control (i.e. each of concentrations of DGE and agarobiose being 0 μM), and the cells were incubated in a wet-type incubator at 37° C. and 5% CO2 for 5 hours. […]"}, "HO1 protein": {"system": "HO1 protein", "experiment": "HO1 protein induction in RAW 264.7 cells (Western blot)", "type": "cell-based", "design": "key to Intensity of Bands of HO1 Protein: those showing no bands are indicated by “−,”; the intensities of the bands are indicated by +−, +, ++ in the ascending order of the intensities of the bands; the intensities of the bands are indicated by +−, +, ++ in the ascending order of the intensities of the bands; the intensities of the bands are indicated by +−, +, ++ in the ascending order of the intensities of the bands", "conditions": "for induction action for HO production (band ascribed to HO1 protein): 15 hours, DGE at 10 to 40 μM", "description": "RAW 264.7 cells (ATCC TIB 71) were suspended in a Dulbecco's modified Eagle's medium (manufactured by Bio Whittaker; 12-604F) containing 10% fetal bovine serum (manufactured by Gibco), so as to have a concentration of 3×10^5 cells/ml. The cell suspension was added to each well of a 6-well microtiter plate in a volume of 5 ml each. The cells were cultured at 37° C. in the presence of 5% CO2 gas overnight. To each well was added 50 μl of 4 mM, 2 mM or 1 mM DGE aqueous solution (each of final concentrations: 40 μM, 20 μM or 10 μM), and the cells were cultured for 15 hours. […] The cells were harvested by peeling off the cells from the plate with a scraper. The harvested cells were suspended in 0.1 M Tris-HCl buffer (pH 7.5) containing 0.05 mM pepstatin (manufactured by Sigma, P5318), 0.2 mM leupeptin (manufactured by Sigma, L2884), 1 mM phenylmethylsulfonyl fluoride (manufactured by nakalai tesque, 273-27), 10 mM disodium dihydrogenethylenediaminetetraacetate and 0.1% Triton X-100, and subjected to freezing and thawing once. Thereafter, the supernatant obtained by centrifugation was used as a protein fraction. The protein content in the protein fraction was assayed by Micro BCA Protein Assay Reagent (one manufactured by Pierce sold by Takara Shuzo Co., Ltd., P7411). Each of the resulting protein fraction samples was mixed with an equal volume of 0.125 M Tris-HCl buffer (pH 6.8) containing 4% sodium lauryl sulfate (SDS), 2% 2-mercaptoethanol,\n0.001% Bromophenol Blue and 20% glycerol, and the mixture was treated at 100° C. for 5 minutes. A mixture containing a protein in an amount of 10 μg or so was loaded on 12.5% SDS-polyacrylamide gel, and electrophoresed with a constant current of 20 mA. In a blotting buffer containing 48 mM Tris, 39 mM glycine, 20% methanol, 0.0375% SDS, the gel after the electrophoresis was transferred to a PDVF membrane (manufactured by Millipore Corporation, IPVHOOO 10) in accordance with the attached protocol, using transblot SD cell semi-drive blotting device (manufactured by BioRad), at a constant voltage of 15 V for 25 minutes. The transferred PVDF membrane was blocked overnight in a Block Ace (manufactured by DAINIPPON PHARMACEUTICAL CO., LTD., UK-B25) solution at 4° C. The blocked membrane was washed for 15 minutes thrice with phosphate-buffered physiological saline containing 0.1% Tween 20 under gentle shaking. Thereafter, the membrane was subjected to the reaction under gentle shaking in phosphate-buffered physiological saline containing 10% Block Ace with a 200 ng/ml anti-HOl antibody (N-19, manufactured by Santa Cruz, sc-7696) and 0.1% Tween 20 at room temperature for 1 hour, and was washed for 15 minutes thrice with phosphate-buffered physiological saline containing 0.1% Tween 20 under gentle shaking. Next, the membrane was subjected to the reaction under gentle shaking in phosphate-buffered physiological saline with 10% Block Ace with 0.1% peroxidase-conjugated rabbit anti-goat IgG (H+L) antibody (manufactured by Zymed, 61-1620) and 0.1% Tween 20 at room temperature for 1 hour, and was washed for 15 minutes five times with phosphate-buffered physiological saline containing 0.1% Tween 20 under gentle shaking. Subsequently, a PVDF membrane was stained by using Western blot Chemiluminescence Reagent Plus (one manufactured by NEN Life Science Products sold by Daiichikagaku, NEL103) in accordance with the attached protocol, and sensitized on an X-ray film (manufactured by Kodak, CAT 1651454). The sensitized film was developed with FPM800 (manufactured by Fuji Photo Film Co., Ltd.).\nAs a result, there could be confirmed a band ascribed to HO1 protein in the group with addition of DGE. […] In the table, + symbols were given in accordance with the intensity of the band for HO1 protein. In other words, in Table 3, those showing no bands are indicated by “−,” and the intensities of the bands are indicated by +−, +, ++ in the ascending order of the intensities of the bands."}, "interleukin-6 (IL-6)": {"system": "interleukin-6 (IL-6)", "experiment": "TPA-induced IL-6 production in peritoneal macrophage (ELISA)", "type": "cell-based", "conditions": "mouse peritoneal macrophage, final concentrations 20 μM and 10 μM, 14 hours, IL-6 in culture supernatant by ELISA", "description": "Four milliliters of a 10% fetal bovine serum-containing RPMI 1640 medium (manufactured by Bio Whittaker, 12-702F) was intraperitoneally injected to ddy mouse (Nippon SLC, female, 7-weeks old), and the mouse was well massaged, and the medium was taken out to obtain peritoneal cells. The peritoneal cells were suspended in the 10% fetal bovine serum-containing RPMI 1640 medium so as to have a concentration of 10^6 cells/ml, and dispensed into 48-well microtiter plate in a volume of 500 μl each. The peritoneal cells were cultured at 37° C. for 2 hours in the presence of 5% CO2 gas. Thereafter, the culture supernatant was removed to give adherent cells to be used as peritoneal macrophage. To each well was freshly dispensed a Dulbecco's modified Eagle's medium (manufactured by Bio Whittaker; 12-917F) without phenol red containing 10% fetal bovine serum and 2 mM L-glutamine in a volume of 500 μl. […] The content of interleukin-6 (IL-6) in the culture supernatant was assayed by enzyme immuno-sandwich assay (ELISA: Matched antibody Pair SamplePak mouse IL-6, manufactured by Endogen). Here, the group with no addition of DGE and TPA aqueous solution (control) was set as a negative control, and the group with addition of TPA aqueous solution alone (control+TPA) was set as a positive control. In addition, all of the assays were carried out twice."}, "interleukin-10 (IL-10)": {"system": "interleukin-10 (IL-10)", "experiment": "LPS-induced IL-10 production in RAW 264.7 cells (ELISA)", "type": "cell-based", "conditions": "final concentration 20 μM, 5 hours, then LPS 18 hours, IL-10 in culture supernatant by ELISA", "description": "RAW 264.7 cells (ATCC TIB 71) were suspended in a Dulbecco's modified Eagle's medium (manufactured by Bio Whittaker; 12-604F) containing 10% fetal bovine serum (manufactured by Gibco), so as to have a concentration of 3×10^5 cells/ml. The cell suspension was added to each well of a 48-well microtiter plate in a volume of 0.5 ml each. The cells were cultured at 37° C. in the presence of 5% CO2 gas overnight. To each well was added 5 μl of a 2 mM DGE aqueous solution (final concentration: 20 μM), and the cells were cultured for additional 5 hours. Thereafter, 5 μl of a 100 μg/ml lipopolysaccharide (LPS, manufactured by Sigma, L-2012) aqueous solution was added thereto, and the cells were cultured for 18 hours, and thereafter the culture supernatant was recovered. The content of the interleukin-10 (IL-10) in the culture supernatant was assayed by the enzyme immuno-sandwich assay. Here, the group with no addition of DGE and LPS aqueous solution (control) was set as a negative control, and the group with addition of LPS aqueous solution (control+LPS) alone was set as a positive control. In addition, all of the assays were carried out twice."}},
  "data": [
    {"compound": "OC[C@H]1O[C@@H](O[C@H]2[C@H]3OC[C@@H]2OC(O)[C@H]3O)[C@H](O)[C@@H](O)[C@H]1O", "note": "(mixture of isomers) [agarobiose]", "values": [
      {"measurement": "inhibition of LPS-stimulated TNFα production", "setting": "TNFα", "value": "inhibition"}
    ]},
    {"compound": "CCCCC/C=C/C=C1/C(=O)C=C[C@@H]1C/C=C\\CCCC(=O)O", "note": "[15-Deoxy-Δ12,14 prostaglandin J2, reference compound]", "values": [
      {"measurement": "Intensity of Bands of HO1 Protein", "setting": "HO1 protein; 5 μl of 3 mM dimethyl sulfoxide solution added to 5 ml well, positive control", "value": "++"}
    ]},
    {"compound": "N[C@@H](CCC(=O)N[C@@H](CSC1CC2(O)OCC1OC2O)C(=O)NCC(=O)O)C(=O)O", "note": "(stereo partly drawn) [DGE-GSH, 5-L-glutathion-S-yl-2-hydroxy-3,7-dioxabicyclo[2.2.2]octan-1-ol]", "values": [
      {"measurement": "inhibition of TPA-induced IL-6 production", "setting": "interleukin-6 (IL-6)", "value": "inhibitory action"},
      {"measurement": "inhibition of LPS-induced IL-10 production", "setting": "interleukin-10 (IL-10)", "value": "inhibitory action"},
      {"measurement": "induction action for HO production (band ascribed to HO1 protein)", "setting": "HO1 protein", "value": "induction action"},
      {"measurement": "inhibitory activity for cancer cell proliferation", "setting": "HL-60 cells", "value": "active"}
    ]},
    {"compound": "O=C1C=CC(CO)OC1O", "note": "[κ-DGE, D-Glycero-1,5-epoxy-1αβ,6-dihydroxy-cis-hex-3-en-2-one]", "values": [
      {"measurement": "inhibition of TPA-induced IL-6 production", "setting": "interleukin-6 (IL-6); listed as K-DGE", "value": "inhibitory action"},
      {"measurement": "inhibition of LPS-induced IL-10 production", "setting": "interleukin-10 (IL-10)", "value": "inhibitory action"},
      {"measurement": "induction action for HO production (band ascribed to HO1 protein)", "setting": "HO1 protein", "value": "induction action"}
    ]}
  ]
}
